According to patent US20100316529A1, “Anti-Microbial Systems and Methods” (priority 2001, published 2010):

What was measured:
Experiment in all cases: EDTA salt dilution test, MIC/MBC
Assay type in all cases: cell-based
E. coli = conditions: three entries, Exhibit A1
Protocol: (§1) Protocol one: Broth dilutions:
(§2) Inoculate a 25 ml nutrient broth (Oxoid No2) in a sterile universal container with one of the following organisms; Pseudomonas aeruginosa, Proteus Mirabilis, E. coli, Klebsiella pneumoniae, Staph aureus, Coagulase negative staphylococci, Enterococcus faecalis or MRSA.
(§3) Incubate the broth at 37° C. overnight.
(§4) To make these concentrations put the EDTA needed for 10 mLs in only 9 mLs of broth in sterile universal containers, as this will be diluted further when the organisms are added.
(§5) Dilute the overnight broth cultures to 10^7 organisms/mL using more sterile nutrient broth.
(§6) Add 1 mL of this diluent to each of the EDTA series broths. This gives a final concentration of 10^6 organism/mL in the EDTA broths.
(§7) Incubate for 18 hours at 37° C.
(§8) Next day visually read the MIC's by observing the turbidity of the broths.
(§9) Plate out 1 uL of each dilution onto fresh blood agar plate and spread using a sterile plastic spreader.
(§10) Incubate overnight at 37° C.
(§11) Next day read the MBC's by performing colony counts.

Ent. faecalis = system: Ent. faecalis
Protocol: as §1, §2, §3, §4, §5, §6, §7, §8, §9, §10, §11

Kleb. pnemoniae = conditions: two entries
Protocol: as §1, §2, §3, §4, §5, §6, §7, §8, §9, §10, §11

MRSA = conditions: five entries
Protocol: as §1, §2, §3, §4, §5, §6, §7, §8, §9, §10, §11

Proteus mirabilis = conditions: two entries
Protocol: as §1, §2, §3, §4, §5, §6, §7, §8, §9, §10, §11

Pseudomonas aeruginosa = conditions: two entries
Protocol: as §1, §2, §3, §4, §5, §6, §7, §8, §9, §10, §11

Pseudomonas sp. = system: Pseudomonas sp.
Protocol: as §1, §2, §3, §4, §5, §6, §7, §8, §9, §10, §11

S. aureus = conditions: five entries
Protocol: as §1, §2, §3, §4, §5, §6, §7, §8, §9, §10, §11

S. capitis = conditions: two entries
Protocol: as §1, §2, §3, §4, §5, §6, §7, §8, §9, §10, §11

S. epidermidis = conditions: two entries
Protocol: as §1, §2, §3, §4, §5, §6, §7, §8, §9, §10, §11

S. lentus = system: S. lentus
Protocol: as §1, §2, §3, §4, §5, §6, §7, §8, §9, §10, §11

S. simulans = system: S. simulans
Protocol: as §1, §2, §3, §4, §5, §6, §7, §8, §9, §10, §11

S. xylosus = system: S. xylosus
Protocol: as §1, §2, §3, §4, §5, §6, §7, §8, §9, §10, §11

Ent. faeculm = system: Ent. faeculm
Kleb. oxytoca = system: Kleb. oxytoca
Kleb. ornitholytica = system: Kleb. ornitholytica
Steno. maltophilia = system: Steno. maltophilia
Cornyeform amycolatum = conditions: Exhibit A1
Coryneform strait/amy = system: Coryneform strait/amy
Proteus vulgaris = system: Proteus vulgaris

## O=C([O-])CN(CCN(CC(=O)[O-])CC(=O)[O-])CC(=O)[O-].[Cu+2].[Na+].[Na+] [Cupric disodium EDTA]
E. coli
  MBC, minimum concentration required to kill an entire population: >30000 µg/mL
Ent. faecalis; Exhibit A1
  MBC, minimum concentration required to kill an entire population: <500 µg/mL
Ent. faecalis; Exhibit A2
  MIC, minimum concentration required to inhibit growth: <500 µg/mL
Kleb. pnemoniae; Exhibit A1
  MBC, minimum concentration required to kill an entire population: >30000 µg/mL
Kleb. pnemoniae; Exhibit A2
  MIC, minimum concentration required to inhibit growth: >30000 µg/mL
MRSA; Exhibit A1
  MBC, minimum concentration required to kill an entire population: <500 µg/mL
MRSA; Exhibit A2
  MIC, minimum concentration required to inhibit growth: <500 µg/mL
Proteus mirabilis; Exhibit A1
  MBC, minimum concentration required to kill an entire population: >30000 µg/mL
Proteus mirabilis; Exhibit A2
  MIC, minimum concentration required to inhibit growth: 6000 µg/mL
Pseudomonas aeruginosa; Exhibit A1
  MBC, minimum concentration required to kill an entire population: >30000 µg/mL
Pseudomonas aeruginosa; Exhibit A2
  MIC, minimum concentration required to inhibit growth: >30000 µg/mL
Pseudomonas sp.; Exhibit A1
  MBC, minimum concentration required to kill an entire population: >30000 µg/mL
Pseudomonas sp.; Exhibit A2
  MIC, minimum concentration required to inhibit growth: >30000 µg/mL
S. aureus; Exhibit A1
  MBC, minimum concentration required to kill an entire population: <500 µg/mL
S. aureus; Exhibit A2
  MIC, minimum concentration required to inhibit growth: <500 µg/mL
S. capitis; Exhibit A1
  MBC, minimum concentration required to kill an entire population: <500 µg/mL
S. capitis; Exhibit A2
  MIC, minimum concentration required to inhibit growth: <500 µg/mL
S. epidermidis; Exhibit A1
  MBC, minimum concentration required to kill an entire population: <500 µg/mL
S. epidermidis; Exhibit A2
  MIC, minimum concentration required to inhibit growth: <500 µg/mL
S. lentus; Exhibit A1
  MBC, minimum concentration required to kill an entire population: <500 µg/mL
S. lentus; Exhibit A2
  MIC, minimum concentration required to inhibit growth: <500 µg/mL
S. simulans; Exhibit A1
  MBC, minimum concentration required to kill an entire population: <500 µg/mL
S. simulans; Exhibit A2
  MIC, minimum concentration required to inhibit growth: <500 µg/mL
S. xylosus; Exhibit A1
  MBC, minimum concentration required to kill an entire population: <500 µg/mL
S. xylosus; Exhibit A2
  MIC, minimum concentration required to inhibit growth: <500 µg/mL
Ent. faeculm; Ent. faecuim, Exhibit A2
  MIC, minimum concentration required to inhibit growth: <500 µg/mL
Ent. faeculm; Ent. faeculm, Exhibit A1
  MBC, minimum concentration required to kill an entire population: <500 µg/mL
Kleb. oxytoca; Exhibit A1
  MBC, minimum concentration required to kill an entire population: >30000 µg/mL
Kleb. oxytoca; Exhibit A2
  MIC, minimum concentration required to inhibit growth: >30000 µg/mL
Kleb. ornitholytica; Exhibit A1
  MBC, minimum concentration required to kill an entire population: >30000 µg/mL
Kleb. ornitholytica; Exhibit A2
  MIC, minimum concentration required to inhibit growth: >30000 µg/mL
Steno. maltophilia; Exhibit A1
  MBC, minimum concentration required to kill an entire population: >30000 µg/mL
Steno. maltophilia; Exhibit A2
  MIC, minimum concentration required to inhibit growth: 6000 µg/mL
Cornyeform amycolatum
  MBC, minimum concentration required to kill an entire population: <500 µg/mL
Coryneform strait/amy; Exhibit A1
  MBC, minimum concentration required to kill an entire population: <500 µg/mL
Coryneform strait/amy; Exhibit A2
  MIC, minimum concentration required to inhibit growth: <500 µg/mL
Proteus vulgaris; Exhibit A1
  MBC, minimum concentration required to kill an entire population: >30000 µg/mL
Proteus vulgaris; Exhibit A2
  MIC, minimum concentration required to inhibit growth: >30000 µg/mL
